Measured values: patent US20230116114A1, “COMPOUNDS AND COMPOSITIONS FOR TREATING CNS DISORDERS” (Blue Oak Pharmaceuticals, Inc., priority 2020, published 2023)
Counter-ions that a name gives are not always drawn.

Tested on: mice
Assay: SmartCube in vivo neuropharmacological behavioral assay
Conditions: for minimal effective dose: Mus musculus, ip, 0.25 h, dose having 50% or more total activity in SmartCube, i.p., read-out: MED (minimal effective dose); for AD: antidepressant (percent probability) / AG: analgesic (percent probability) / AP: antipsychotic (percent probability) / AX: anxiolytic (percent probability) / CE: cognitive enhancer (percent probability) / HA: hallucinogenic (percent probability) / MS: mood stabilizer (percent probability) / PS (percent probability) / SD: sedative hypnotic (percent probability) / SE: side effects (percent probability) / UN: uncharacterized CNS activity (percent probability) / XG: anxiogenic (percent probability): SmartCube, i.p. 15 min before test, result at the MED
Protocol: The compounds were evaluated for their CNS related properties (e.g., the treatment, prevention or diagnosis of CNS or CNS-related disorders and/or amelioration of symptoms) using neuropharmacological screening methods described in S. L. Roberts et al., Front. Neurosci. 2011, 5:103 (hereinafter referred to as “Roberts,” the contents of which are incorporated herein by reference in their entirety).
According to Roberts, intact systems are useful in detecting improvement in disease-relevant endpoints, because psychiatric diseases generally result from disorders of cell-cell communication or circuitry. The endpoints are typically behavioral in nature, often requiring human observation and interpretation. In order to test multiple compounds for behavioral effects relevant to neurological and psychiatric diseases and disorders, PsychoGenics, Inc. (Paramus, N.J. “PGI”) developed SmartCube®, an automated system in which behaviors of compound-treated mice are captured by digital video and analyzed with computer algorithms to facilitate testing of multiple compounds for behavioral effects relevant to psychiatric disease. (D. Brunner et al., Drug Discov. Today 2002, 7:S107-S112; Alexandrov et al., Eur. J. Pharmacol. 2015, 753:127-134; the contents of each of which are incorporated herein by reference in their entirety).
The SmartCube® system is described in Example 2.2 of U.S. Pat. No. 9,758,529 and Example 289 of WIPO Publication No. WO2018/023070, the contents of each of which are incorporated herein by reference in their entirety.
According to the present disclosure, compounds identified may be evaluated using the SmartCube® system. The results of such analysis correlate certain patterns or combinations of behaviors to CNS effects along a percent probability scale of 0-100 where zero (0) reflects the limit of quantitation (LOQ).
The compounds of the present disclosure were evaluated for their CNS related properties (e.g., the treatment, prevention or diagnosis of CNS or CNS-related disorders and/or amelioration of symptoms) using neuropharmacological screening methods described in S. L. Roberts et al., Front. Neurosci. 2011, 5:103 (hereinafter referred to as “Roberts,” the contents of which are incorporated herein by reference in their entirety).
The SmartCube® system described herein was utilized to compare the behavioral signature of a test compound to a database of behavioral signatures obtained using a large set of diverse reference compounds (including but not limited to antipsychotics, anxiolytics, antidepressants and bipolar disorder medicine), thereby predicting the neuropharmacological effects of a test compound by similarity to major classes of compounds. It produces an activity signature indicating the probability that the activity of the test compound at the administered dose matches a given class of neuropharmacological agents. The test compound is simultaneously compared against multiple classes of agents; thus, a separate probability is generated for each behavioral effect measured (such as but not limited to anxiolytic activity and analgesic activity).
The compounds of the present disclosure were dissolved in a mixture of Pharmasolve™ (N-methyl-2-pyrrolidone (NMP)) and were injected i.p. 15 min. before the behavioral test. For each compound, injections were administered at different dose levels (e.g., 0.3, 1, 3, 10 and 30 mg per kg (mpk)). A compound's minimal effective dose (MED; see Table 3) is a measure of the compound's potency. The MED was defined as the dose (in mpk) having 50% or more total activity in SmartCube®. For each behavioral effect measured, results at the MED are presented. CNS activities of the compounds were recorded (see Table 2). In Table 1, a key to the percent probabilities (probability ×100) for each behavioral effect (“X”) are defined provided, where LOQ is the limit of quantification.

Compound	minimal effective dose	AD: antidepressant (percent probability)	AG: analgesic (percent probability)	AP: antipsychotic (percent probability)	AX: anxiolytic (percent probability)	CE: cognitive enhancer (percent probability)	HA: hallucinogenic (percent probability)	MS: mood stabilizer (percent probability)	PS (percent probability)	SD: sedative hypnotic (percent probability)	SE: side effects (percent probability)	UN: uncharacterized CNS activity (percent probability)	XG: anxiogenic (percent probability)
c1ccc2c(c1)C1CCCC2N1C1CCCCC1 [Compound 13, 12-Cyclohexyl-12-azatricyclo[6.3.1.0^2,7]dodeca-2,4,6-triene hydrochloride]	10 to 30 mg/kg	+++ (25% ≤ X < 50%)	+ (LOQ ≤ X < 5%)	+ (LOQ ≤ X < 5%)	++ (5% ≤ X < 25%)	+ (LOQ ≤ X < 5%)	+ (LOQ ≤ X < 5%)	+ (LOQ ≤ X < 5%)	++ (5% ≤ X < 25%)	+ (LOQ ≤ X < 5%)	+ (LOQ ≤ X < 5%)	+ (LOQ ≤ X < 5%)	+ (LOQ ≤ X < 5%)
CC(C)CN1C2CCCC1c1ccccc12 [Compound 8, 12-(2-Methylpropyl)-12-azatricyclo[6.3.1.0^2,7]dodeca-2,4,6-triene]	10 to 30 mg/kg	++++ (50% ≤ X < 100%)	+ (LOQ ≤ X < 5%)	+ (LOQ ≤ X < 5%)	++ (5% ≤ X < 25%)	+ (LOQ ≤ X < 5%)	+ (LOQ ≤ X < 5%)	+ (LOQ ≤ X < 5%)	++ (5% ≤ X < 25%)	+ (LOQ ≤ X < 5%)	+ (LOQ ≤ X < 5%)	+ (LOQ ≤ X < 5%)	+ (LOQ ≤ X < 5%)
CC([C@H](C)F)N1C2CCCC1c1ccccc12 (stereo in doubt) [Compound 24, 12-(3-Fluorobutan-2-yl)-12-azatricyclo[6.3.1.0^2,7]dodeca-2,4,6-triene hydrochloride]	10 to 30 mg/kg	+++ (25% ≤ X < 50%)	+ (LOQ ≤ X < 5%)	+ (LOQ ≤ X < 5%)	+ (LOQ ≤ X < 5%)	+ (LOQ ≤ X < 5%)	+ (LOQ ≤ X < 5%)	+ (LOQ ≤ X < 5%)	++ (5% ≤ X < 25%)	+ (LOQ ≤ X < 5%)	+ (LOQ ≤ X < 5%)	+ (LOQ ≤ X < 5%)	+ (LOQ ≤ X < 5%)
CC1CC2c3ccccc3C(C1)N2C1CC1 (stereo not shown) [Compound 38, 12-azatricyclo[6.3.1.0^2,7]dodeca-2,4,6-trien-10-yl}methylium hydrochloride]	10 to 30 mg/kg	++++ (50% ≤ X < 100%)	+ (LOQ ≤ X < 5%)	+ (LOQ ≤ X < 5%)	+ (LOQ ≤ X < 5%)	++ (5% ≤ X < 25%)	++ (5% ≤ X < 25%)	+ (LOQ ≤ X < 5%)	+ (LOQ ≤ X < 5%)	+ (LOQ ≤ X < 5%)	+ (LOQ ≤ X < 5%)	+ (LOQ ≤ X < 5%)	+ (LOQ ≤ X < 5%)
